The values that follow come from a melting point compilation (Tetko et al.; mined from patent text by program, amines drawn as free bases though some values may be those of a salt).

Structures are written as SMILES. A value given as a limit tells only on which side of the number the result lay.

A word on the melting point: it is the temperature of the solid-liquid transition. In turn, `COC(=O)c1ccc(N2C(=O)c3ccccc3C2=O)cc1O` registered a melting point of 218 to 219 °C.
As to `CN1CCN(C(=O)OC2c3ccccc3C(=O)N2c2ccc3ccc(Br)nc3n2)CC1` (centres undefined), the melting point was determined as 260 °C.
In turn, `Cc1n[nH]c(-c2ccc(F)cc2)c1-c1ccc2c(c1)NC(=O)CO2` showed a melting point of 295 to 298 °C.
`O=c1ccn(CCOCCO)c(C(O)c2ccccc2)c1OCc1ccccc1` (centres undefined) came in with a melting point of 157 to 159 °C.
On to `CCCCCCCCC(=O)Nc1cc([N+](=O)[O-])cc([N+](=O)[O-])c1`, for which the melting point lay within 72.5 to 73 °C.
To `CC(C)(C)Sc1cccc(-c2nc(=O)c3ccccc3s2)n1` belongs 153 to 154 °C; to `CC(=O)C(=Cc1cccc([N+](=O)[O-])c1)C(=O)OC(C)(C)CN(C)CCC(c1ccccc1)c1ccccc1`, 65 to 80 °C; to `CCOC(=O)CCCNc1ccc(OCC(C)(C)C)c(C#N)c1`, 88 °C.
As for `CS(=O)(=O)c1ncnn1C[C@]1(c2ccccc2Cl)O[C@@H]1c1ccc(Cl)cc1Cl` (relative stereo), the figure is 129 to 133 °C; as for `COc1ccc(N2C(=O)/C(=C/C(C)=NO)C2c2ccccc2)cc1` (centres undefined), 204 to 206 °C; as for `CCOP(=O)(CCCCCCOc1ccc(C(=O)O)cc1)OCC`, 215 to 216 °C.
To `O=S(=O)(NCC1CCN(C[C@H]2COc3ccc(Cl)cc3O2)CC1)c1c(F)cccc1F` belongs 122 to 124 °C; to `CC1C=C(c2nc3cccc(F)c3s2)C=CC1=N` (centres undefined), 175 to 177 °C.
Turning to `CCCn1c(COCC)nc2c(N)nc3ccc(OC4CCN(C(=O)NC(C)C)CC4)cc3c21`, the melting point is 236 to 239 °C.
As for `Cc1c(N)cccc1-c1ccnc(Nc2ccc(C(=O)N3CCOCC3)cc2)n1`, the figure is 183 to 184 °C.
On to `Cc1ccc(C(=O)Nc2cccc(C(F)(F)F)c2)cc1-c1ccc2scnc2c1`, for which the melting point was in the range of 200 to 202 °C.
To `CCCCCCOC(=O)C=Nc1cc(Cl)ccc1C(=O)O` belongs 99 °C; to `CN(Cc1ccc(F)cc1)C1CCN(c2ccc(Cl)cc2)CC1`, 72 to 73 °C.
To `O=C1C(c2ccccc2)=C(c2ccccc2)C(=O)N1C1CCCCC1` belongs 159 to 160 °C; to `O=C1CNC(=O)N1c1cc(Cl)cc(Cl)c1`, 199 °C; to `Cc1c(CNc2cccc(N)n2)c(C)c(CNc2cccc(N)n2)c(C)c1CNc1cccc(N)n1`, 130 to 132 °C.
As for `CNC(=O)NC(=O)C(CC1CCCC1)c1ccc(S(C)(=O)=O)c(C#N)c1` (centres undefined), the figure is 237 to 239 °C; as for `O=C(Nc1nc(C(F)(F)F)co1)C1c2cc(F)ccc2Oc2ccc(F)cc21`, 259 °C.
As to `COCCn1nc2c(N)nc3ccccc3c2c1CCCCNS(C)(=O)=O`, the melting point lay within 159 to 161 °C.
`CC(=O)NCCNC(=O)c1ccc(Cl)cc1` showed a melting point of 222 to 224 °C.
As for `Cc1ccc(S(=O)(=O)N2CCN(C(c3ccccc3)c3ccc(Cl)cc3)CC2)cc1` (single isomer, unassigned; (+)), the figure is 171 °C; as for `Fc1cccc(Cl)c1-c1nnc2ccc(C(F)(F)F)cn12`, 170 to 171 °C.
As for `CC1(c2ccc(F)cc2)OC(C=Cc2ccc(C#N)cc2)=CC1=O` (centres undefined), the figure is 140 to 142 °C.
To `Cc1nc(-c2ccccc2)c(CC(C)C(=O)O)o1` (centres undefined) belongs 109 to 110 °C; to `CC(=O)NNc1ccc(NC(=S)N(C)C)cc1`, 187 to 189 °C.
For `CNc1nc(-c2ccc(-c3ccccc3)cc2)c(C(=O)OC)s1`, the melting point is above 230 °C.
`O=C(C1CC=CCC1)C1CCC2C(C=CC3=CCCc4c3n2c2ccncc42)C1` (centres undefined) had a melting point of 156 to 158 °C.
As for `COc1cc2nc(N3CCC(N4C(=O)C(C)C(C)C4=O)CC3)nc(N)c2cc1OC` (centres undefined), the figure is 267 to 268 °C; as for `CCCCn1c(O)nc2c(N)ncnc21`, 222 to 224 °C; as for `CC(C)OC(=O)c1nc(Cl)c(Cl)[nH]1`, 168 °C.
To `O=C(N[C@H](Cc1ccccc1)[C@H](O)C(=O)O)OCc1ccccc1` belongs 154 to 155 °C.
Regarding `COc1ccc(-c2nc(NC(C)=O)n3nc(-c4ccco4)nc3n2)cc1`, the melting point was in the range of 243 to 246 °C.
Regarding `COc1ccc(-n2c(-c3ccc(N(C)C)cc3)nnc2C(C)O)cc1` (centres undefined), the melting point stood at 190 °C.
`CN(C)C=C(C#N)C(=O)Nc1ccc(F)cc1Cl` returned a melting point of 138 to 139 °C.
`C(=Cc1ccc2ccccc2c1)c1ccccc1` had a melting point of 143 to 145 °C.
Take `[O-][N+](=Cc1ccccc1)CCCCCC[N+]([O-])=Cc1ccccc1`: the melting point came to 105 °C.
As for `CCN(CC)c1ccc(/C=C/C(=O)CC(=O)/C=C/c2ccc3cc[nH]c3c2)c(OCc2ccccc2)c1`, the figure is 160 to 163 °C.
As for `COc1ccc(C(=O)O)c(O)c1O`, the figure is 234 °C; as for `COc1ccccc1-c1c(O)c2ccc(Cl)cc2[nH]c1=O`, above 300 °C.
To `CC1CCN(c2nc(Nc3cc(C4CC4)n[nH]3)c3ccccc3n2)CC1` belongs 190 °C; to `COc1ccc(N=C(NC(=S)NCCO)c2ccccc2)cc1`, 141 to 142 °C.
`O=c1[nH]nc(-c2ccc(OC3CCN(C4CCC4)CC3)cc2)c2c1CCC2`: the melting point was 210 to 213 °C.
Molecule `CCN(CC)CCc1c[nH]c2ccc(N(CC)S(=O)(=O)c3ccc4ccccc4c3)cc12` showed a melting point of 49 to 50 °C.
Molecule `O=C1CCc2cc(Cl)ccc2C1` yielded a melting point of 121 to 122 °C.
To `CC(C)(C)C(=O)OCCN1CCN(c2nc(N)ncc2Oc2ccc(Cl)cc2)CC1` belongs 123 to 125 °C; to `CCOC(=O)c1ccc(S(=O)(=O)C(C)(C)C)cc1Cl`, 82.4 to 83 °C.
As for `FC(F)(F)Sc1ccc(C=Cc2nc(CNc3ccc(CCCCn4ccnn4)cc3)co2)cc1`, the figure is 76 to 78 °C; as for `COC(=O)CCCc1cc2cc(Cl)ccc2n1S(=O)(=O)c1ccc2ccccc2c1`, 116 to 118 °C; as for `Cc1cnc(NC(=O)C(Cc2ccc(F)cc2)c2ccc(S(C)(=O)=O)cc2)cn1` (centres undefined), 172 to 175 °C.
Turning to `O=C1Nc2cccc(-c3cccc(NC(=O)c4cccc([N+](=O)[O-])c4)c3)c2/C1=C/c1ccc[nH]1`, the melting point fell in the range of 265 to 266 °C.
Regarding `COc1ccc2c(c1)c(Br)cn2C(=O)OC(C)(C)C`, the melting point lay within 111 to 112 °C.
As for `N#Cc1ccccc1S(=O)(=O)c1ccc(N)cc1`, the figure is 177 to 179 °C.
As for `Nc1cccc(Oc2ccc(C(=O)c3ccc(C(=O)c4ccc(Oc5cccc(N)c5)cc4)cc3)cc2)c1`, the melting point lay within 161 to 163 °C.
As for `NS(=O)(=O)c1c(CF)nsc1OCC(F)(F)F`, the figure is 70 to 73 °C; as for `CCn1c(=O)c2[nH]c(/C=C/c3ccc(OC)c(C)c3C)nc2n(CC)c1=O`, above 280 °C; as for `COC(=O)c1cc(O)cc(C(=O)OC)c1[N+](=O)[O-]`, 183 to 186 °C.
As for `C[C@@H]1CCC[C@H](C)N1Cc1ccc2cc(NC(=O)N3CCC(c4ccc(Cl)cc4)CC3)ccc2c1`, the figure is 199 to 200 °C; as for `CNC(=O)Oc1ccc(NC(=O)COC)c(C)c1`, 130 to 132 °C.
With `COC1=C(OC)C(=O)C2=C(CCC(CCn3c(=O)ccc4ccccc43)CC2)C1=O`, the melting point fell in the range of 88 to 90 °C.
The molecule `Cn1c2c(c3cc(O)ccc31)CC(CO)C2` (centres undefined) came in with a melting point of 153 to 154 °C.
As to `COC(=O)C(Sc1ccccc1)c1ccc(I)cc1` (centres undefined), the melting point was in the range of 62.5 to 65 °C.
Molecule `CC(C)C(NS(=O)(=O)c1ccc(Cl)cc1)c1ccc(CCCC(=O)O)cc1` (single isomer, unassigned; (+)) returned a melting point of 117 to 119 °C.
Consider `CC1(c2ccccc2Cl)C(=O)Nc2ccc(Cl)cc21` (centres undefined), for which the melting point stood at 185 °C.
As for `C=CCOc1ccnc2c([N+](=O)[O-])cccc12`, the figure is 127 °C; as for `CCC12CCC3C4=C(CCC3C1C=CC2=O)CC(OC)=CC4` (centres undefined), 89 to 91 °C.
To `CCc1c(-c2nnc(C)s2)cc2oc(=O)c(C)c(C)c2c1OC` belongs 201 to 203 °C.
`O=C(O)Cc1cc(C(=O)c2ccccc2)ccc1O` had a melting point of 205 °C.
As for `Cc1[nH]c(C)c(-c2ccc(Oc3ccc(OC(F)(F)F)cc3)cc2)c(=O)c1Cl`, the figure is 298 to 302 °C.
To `COc1ccc(NC(=O)c2cc(-c3ccc(F)cc3F)ccc2O)cc1OC` belongs 186 to 187 °C; to `OCCC(CCS)c1ccncc1` (centres undefined), 50 to 52 °C; to `Cn1c(CO)nc2ccc(Cl)nc21`, 204 to 210 °C.
As for `CC(C)(C)NC(=O)c1nn(-c2ccc(Cl)cc2)c2c1C1CCC2CC1`, the figure is 198 to 200 °C; as for `COc1cc(Cn2c(-c3ccc(O)cc3)c(C)c3cc(O)ccc32)ccc1OCCN1CCCCCC1`, 142 to 146 °C; as for `Cc1ccc([N+](=O)[O-])c(NC=C2C(=O)OC(C)(C)OC2=O)c1`, 218 to 220 °C.
With `O=C(O)c1ccc(OCC2CCCC2Nc2ccc(Cl)cc2)cc1` (centres undefined), the melting point lay within 153 to 156 °C.
With `CCCCCOc1c(OC)cc([N+](=O)[O-])c2nccc(C)c12`, the melting point lay in the range of 54 to 55 °C.
For the molecule `COc1ccc(S(=O)(=O)N2c3cc(F)ccc3-c3ccccc3C2C)cc1` (centres undefined), the melting point was in the range of 138 to 139 °C.
To `NC(=O)[C@H]1CCC[C@H]1C(=O)O` (relative stereo) belongs 132 to 133 °C; to `COc1ccc2[nH]c(C(=O)O)c(-c3ccccc3F)c2c1`, 206 to 208 °C; to `COc1cc2c(-c3ccncc3)c(C(=O)O)oc(=O)c2cc1OC`, above 250 °C.
Consider `Cc1ccc(CC2CCC(C)(C)C2(O)Cn2cncn2)cc1` (centres undefined), for which the melting point is 118 to 120 °C.
To `C(=C(c1ccccc1)c1ccccc1)c1ccccn1` belongs 117 to 119 °C; to `Cn1cc(-c2cccc(S(=O)(=O)n3ccc(/C=C/C(=O)NO)c3)c2)cn1`, 155 to 160 °C.
As to `CC(C)(C)OC(=O)N1CCn2c(c(C(N)=O)c(Br)c2C2CC2)C1`, the melting point worked out at 162 °C.
